Measured values: patent US9045488B2, “PAA nanoparticles for tumor treatment and imaging” (Photolitec, LLC, priority 2012, dated 2015)
Entries after “also recorded” stand apart in the source; their conditions may differ.

What was measured:
[1] = test system: Colon 26 cancer cells; assay: MTT assay, percent survival of Colon 26 cancer cells with/without light treatment; format: cell-based; conditions: Colon 26 cells, 24 h incubation, no light or light 0.25-2 Joules; relative to the unconjugated compound
Excerpt: (§1) FIG. 3 is a graph showing percent survival of Colon 26 cancer cells relative to concentration in the form of MTT Assay of compound PS815 vs. PS815 conjugated to PAA nanoparticle vs. PS815 both conjugated and post-loaded on PAA nanoparticle without light treatment.
as §1, with “4” for “3”, “nanoparticles. Light treatment was done at 0.25 Joules following 24 h incubation in Colon 26 cells.” for “nanoparticle without light treatment.”
as §1, with “5” for “3”, “nanoparticles. Light treatment was done at 0.5 Joules following 24 h incubation in Colon 26 cells.” for “nanoparticle without light treatment.”
as §1, with “6” for “3”, “nanoparticles. Light treatment was done at one Joule following 24 h incubation in Colon 26 cells. […]” for “nanoparticle without light treatment.”

[2] = test system: COLO-26 tumor; assay: In vivo fluorescence imaging, Maestro GNIR-Flex, mice with induced COLO-26 tumor; design: species or system Balb/c mice; conditions: 4-48 hours post i.v. 0.47 mmoles/kg; excitation 575-605 nm, emission 645 nm long pass
Excerpt: The images are color enhanced by computer assignment of color depth relative to fluorescent intensity. Exposure was 100 ms (fluorescence 0 and 8 ms 9 white light). […] The images are color enhanced by computer assignment of color depth relative to fluorescent intensity. […] The images are color enhanced by computer assignment of color depth relative to fluorescent intensity. […] The images are color enhanced by computer assignment of color depth relative to fluorescent intensity.

In the case of “20-carboxyphenyl-2-[1-hexyloxyethyl]-2-devinyl pyropheophorbide-a methyl ester [PS812]”, the “toxicity to the tumor cells (MTT assay, percent survival), effect of conjugation with nanoparticles” value [1] is reported as “unexpectedly increases toxicity to the cancer cells” and the “fluorescent image clarity and definition / fluorescence imaging” value [2] is reported as “unexpectedly superior fluorescent imaging; also recorded: superiority of fluorescence imaging”.
